In patent publication US6662040B1, “Methods of photoacoustic imaging” (Amersham Health AS, priority 1997, dated 2003):
Each block holds one compound with its values, some of them ahead of it.

Assays:
HT-29 tumors = assay: Comparative biodistribution in mice containing HT-29 tumors; type: in vivo, female immunodeficient mice; conditions: for detection in the tumor: PBS solution
From the text: (§1) FIG. 1a is a graph of comparative biodistribution data of contrast agent NC100448 versus indocyanine green as control in female immunodeficient mice containing HT-29 tumors at one hour post intravenous injection of phosphate buffered saline solutions of each.
as §1, with “1b” for “1a”, “three hours” for “one hour”, “each. […] Relative to FIG. 1a, the concentration of the contrast agent in the tumor has increased while the concentration in the blood has decreased.” for “each.”
Biodistribution results are presented in FIGS. 1a (one hour post-dosing) and 1b (three hours post-dosing).

[1] = Photoacoustic imaging with infrared radiation in mice; type: in vivo, hairless, immunocompetent mice; conditions: 100 μl i.v. tail vein of 4.6 mg/ml in PBS, 750 nm alexandrite laser, immediately following injection
Description: The dry contrast agent (4.6 mg) was dissolved immediately before use in 1 ml phosphate buffered saline (Delbecco's buffer). The solution was doubly filtered through a syringe filter with a pore size of 0.45 μm and then was stored in the dark before injection.
The test animals were hairless, immunocompetent mice weighing about 23 g, which were anaesthetized I. m. with 5 μl xylazine (Rompun) and 10 μl ketamine prior to the measurements.
The irradiating light was produced by an alexandrite laser operating at a frequency of 750 nm. The light beam was attenuated with a neutral density filter so that the energy imparted by each pulse to the skin of the mice was less than 50 millijoules.
For imaging, the mouse rested on the lithium niobate acoustic transducer. The photoacoustic signal was detected after it passed to the opposite side of the mouse from incident radiation. The signal was detected after it passed through the body of the mouse to the opposite side from the point of irradiation.
Before injection of the contrast agent, the first mouse was positioned on its back on the transducer so as to maximize the internal signal when the skin above the liver was irradiated. […] The injected dose was 100 μl injected intravenously into the tail vein with a 26 gauge needle. Immediately following injection, the mouse was again positioned for a maximum signal.

[2] = cited from earlier work
[3] = not told
Description: Monochromatic X-rays with a photon energy of 20 to 30 keV are obtained with a double crystal monochromator using white X-rays from a sychrotron. The beam intensity is modulated by a rotating lead plate chopper with a frequency of 10 Hz. The sample chamber is a cylindrical cell with a volume of about 0.5 ml in a saline bath which has two beryllium windows. The photon flux into the sample chamber is measured with an ionization chamber placed in front.
The amplitude of the photoacoustic signal, normalized to the photon flux, is measured when the sample chamber contains the saline solution and when it contains a barium sulfate suspension.
The amplitude of the photoacoustic signal, normalized to the photon flux, is measured when the sample chamber contains the saline solution and when it contains a solution of iodixanol in PBS.

[4] = one hour post intravenous injection
[5] = three hours post intravenous injection

- detection in the tumor (HT-29 tumors; [4]): negligibly detected
- detection in the tumor (HT-29 tumors; [5]): negligibly detected
Compound: CC1(C)C(/C=C/C=C/C=C/C=C2\N(CCCCS(=O)(=O)O)c3ccc4ccccc4c3C2(C)C)=[N+](CCCCS(=O)(=O)[O-])c2ccc3ccccc3c21 [indocyanine green]

Compound: bis(thioether) 2:1 dye:polymer Reaction Product Between 2-[2-[2-chloro-3-[[1,3-dihydro-1,1,-dimethyl-3-(3-sulfopropyl)-2H-benz [e]indol-2-ylidene]ethylidene]-5-(ethoxycarbonyl)-1-cyclohexen-1-yl]ethenyl]-1,1-dimethyl-3-(3-sulfopropyl)-1H-benz[e]indolium, Inner Salt, Sodium Salt and Disodium PEG3,4000-α,ω-dithiolate [NC100448]
- maximum detected signal from the blood vessels of the liver versus prior to injection [1]: 5 to 10 times larger
- detection in the tumor (HT-29 tumors; [4]): detected in the tumor
- concentration in the blood relative to FIG. 1a (one hour) (HT-29 tumors; [5]): decreased
- concentration in the tumor relative to FIG. 1a (one hour) (HT-29 tumors; [5]): increased
- detection in the tumor (HT-29 tumors; [5]): detected in the tumor

Compound: Oc1ccc2ccccc2c1N=Nc1ccc(N=Nc2ccccc2)cc1 [Sudan III]
- solubility in sesame oil ([2]; sesame oil): soluble in sesame oil
- solubility in water ([2]; water): very water insoluble

- amplitude of the photoacoustic signal normalized to photon flux, versus saline solution [3]: larger
Compound: CC(=O)N(CC(O)CN(C(C)=O)c1c(I)c(C(=O)NCC(O)CO)c(I)c(C(=O)NCC(O)CO)c1I)c1c(I)c(C(=O)NCC(O)CO)c(I)c(C(=O)NCC(O)CO)c1I (stereo not shown) [iodixanol]
